From ChEMBL document CHEMBL4840382, “Novel Substituted Heteroaryl Compounds for Treating Huntington's Disease” (ACS Med Chem Lett, 2021)

Biological target: Huntingtin (Homo sapiens, UniProt P42858)
Experiment: Inhibition of endogenous Huntingtin protein (unknown origin) incubated for overnight in presence of MW1/MAB2166 monoclonal antibody by ELISA-based MSD electrochemiluminescence assay

Sequence of Huntingtin (P42858 whole entry): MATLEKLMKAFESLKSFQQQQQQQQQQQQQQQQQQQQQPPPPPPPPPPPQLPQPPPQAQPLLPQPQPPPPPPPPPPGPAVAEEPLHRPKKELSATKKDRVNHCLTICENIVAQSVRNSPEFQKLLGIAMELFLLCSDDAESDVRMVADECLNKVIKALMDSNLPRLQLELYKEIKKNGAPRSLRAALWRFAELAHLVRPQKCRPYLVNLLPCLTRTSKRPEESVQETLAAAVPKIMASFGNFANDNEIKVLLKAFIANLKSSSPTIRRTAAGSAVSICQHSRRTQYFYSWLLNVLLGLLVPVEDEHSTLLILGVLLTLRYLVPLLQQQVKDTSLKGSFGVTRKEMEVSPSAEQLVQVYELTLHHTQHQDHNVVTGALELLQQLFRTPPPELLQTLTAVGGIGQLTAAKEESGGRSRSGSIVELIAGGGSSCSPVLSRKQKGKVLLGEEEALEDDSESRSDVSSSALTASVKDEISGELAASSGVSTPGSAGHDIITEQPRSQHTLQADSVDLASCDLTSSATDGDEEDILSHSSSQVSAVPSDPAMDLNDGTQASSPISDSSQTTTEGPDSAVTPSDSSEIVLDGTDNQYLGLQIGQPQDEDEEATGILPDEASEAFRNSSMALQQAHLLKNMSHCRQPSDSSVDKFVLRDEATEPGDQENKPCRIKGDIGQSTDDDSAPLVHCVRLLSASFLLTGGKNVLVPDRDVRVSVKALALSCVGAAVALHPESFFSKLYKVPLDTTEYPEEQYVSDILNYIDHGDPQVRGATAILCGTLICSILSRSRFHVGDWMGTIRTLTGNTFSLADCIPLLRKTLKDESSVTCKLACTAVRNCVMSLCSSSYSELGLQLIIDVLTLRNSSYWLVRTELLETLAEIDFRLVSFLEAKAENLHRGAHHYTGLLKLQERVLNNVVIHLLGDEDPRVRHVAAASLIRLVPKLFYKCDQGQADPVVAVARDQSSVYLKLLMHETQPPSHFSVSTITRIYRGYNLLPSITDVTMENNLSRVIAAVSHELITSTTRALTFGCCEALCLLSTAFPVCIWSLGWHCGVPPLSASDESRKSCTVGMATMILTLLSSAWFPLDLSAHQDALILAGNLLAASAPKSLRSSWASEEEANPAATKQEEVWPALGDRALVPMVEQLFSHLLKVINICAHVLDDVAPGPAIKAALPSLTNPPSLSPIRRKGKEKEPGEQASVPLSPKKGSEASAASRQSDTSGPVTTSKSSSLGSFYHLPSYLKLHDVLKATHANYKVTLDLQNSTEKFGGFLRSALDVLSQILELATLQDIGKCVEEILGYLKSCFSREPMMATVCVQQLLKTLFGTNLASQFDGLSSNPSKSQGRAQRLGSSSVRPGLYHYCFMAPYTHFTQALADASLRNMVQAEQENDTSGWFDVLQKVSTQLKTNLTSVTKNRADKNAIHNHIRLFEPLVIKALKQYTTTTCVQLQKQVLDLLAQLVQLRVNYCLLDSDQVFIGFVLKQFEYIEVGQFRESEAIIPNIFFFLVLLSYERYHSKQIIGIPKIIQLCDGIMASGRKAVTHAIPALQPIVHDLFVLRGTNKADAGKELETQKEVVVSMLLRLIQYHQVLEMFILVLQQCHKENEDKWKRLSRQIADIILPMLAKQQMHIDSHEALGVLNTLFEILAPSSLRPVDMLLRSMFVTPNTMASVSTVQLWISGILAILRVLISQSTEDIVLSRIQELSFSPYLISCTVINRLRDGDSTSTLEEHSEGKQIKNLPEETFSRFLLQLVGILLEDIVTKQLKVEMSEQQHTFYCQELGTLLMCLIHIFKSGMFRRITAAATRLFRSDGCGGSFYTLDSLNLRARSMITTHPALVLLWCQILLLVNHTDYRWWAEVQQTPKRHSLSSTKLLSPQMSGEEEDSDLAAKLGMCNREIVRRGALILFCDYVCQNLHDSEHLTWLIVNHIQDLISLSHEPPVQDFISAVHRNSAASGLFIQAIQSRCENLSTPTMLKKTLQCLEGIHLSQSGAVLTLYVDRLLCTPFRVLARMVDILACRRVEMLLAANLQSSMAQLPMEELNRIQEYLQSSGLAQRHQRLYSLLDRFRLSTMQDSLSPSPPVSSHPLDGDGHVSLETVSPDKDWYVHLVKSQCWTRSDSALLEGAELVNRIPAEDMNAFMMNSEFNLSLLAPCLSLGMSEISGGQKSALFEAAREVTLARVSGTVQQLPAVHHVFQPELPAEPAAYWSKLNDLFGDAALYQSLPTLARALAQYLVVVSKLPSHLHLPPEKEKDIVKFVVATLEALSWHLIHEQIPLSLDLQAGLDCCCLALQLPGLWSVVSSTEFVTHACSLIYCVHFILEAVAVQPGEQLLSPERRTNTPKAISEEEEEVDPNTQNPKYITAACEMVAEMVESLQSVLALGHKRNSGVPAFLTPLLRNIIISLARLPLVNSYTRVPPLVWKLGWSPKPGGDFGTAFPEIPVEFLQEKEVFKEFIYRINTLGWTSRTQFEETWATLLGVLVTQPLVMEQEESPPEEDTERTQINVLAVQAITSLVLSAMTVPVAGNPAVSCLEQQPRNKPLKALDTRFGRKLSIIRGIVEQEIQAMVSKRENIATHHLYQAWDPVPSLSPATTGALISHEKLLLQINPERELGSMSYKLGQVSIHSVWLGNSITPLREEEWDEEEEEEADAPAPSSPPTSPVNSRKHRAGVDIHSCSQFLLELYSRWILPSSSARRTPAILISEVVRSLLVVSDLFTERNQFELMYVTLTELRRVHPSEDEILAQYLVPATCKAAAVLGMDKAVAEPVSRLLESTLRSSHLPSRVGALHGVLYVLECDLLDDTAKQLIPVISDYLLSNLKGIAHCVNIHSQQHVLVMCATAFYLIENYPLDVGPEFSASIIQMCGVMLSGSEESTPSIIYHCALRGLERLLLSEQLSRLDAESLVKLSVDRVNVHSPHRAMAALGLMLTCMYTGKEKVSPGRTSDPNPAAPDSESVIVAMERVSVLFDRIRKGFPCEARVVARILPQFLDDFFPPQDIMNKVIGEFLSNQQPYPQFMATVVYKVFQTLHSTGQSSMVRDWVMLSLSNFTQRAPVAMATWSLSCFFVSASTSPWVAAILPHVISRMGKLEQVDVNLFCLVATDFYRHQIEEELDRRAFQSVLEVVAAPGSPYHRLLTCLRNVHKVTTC

Work on CC1CN(c2ncc(-c3ccc(-c4cc(F)c5nn(C)cc5c4)cc3O)nn2)CCN1 (stereo unspecified) yielded an IC50 of 2.1 nM.
Cc1cn2cc(-c3ccc(-c4cnc(N5CCN[C@@H](C(C)C)C5)nn4)c(O)c3)ncc2n1 showed an IC50 of 2.3 nM.
Molecule Oc1cc(-c2c[nH]nc2F)ccc1-c1cnc(N2CCN[C@@H](C3CC3)C2)nn1 has an IC50 of 2.1 nM.
Molecule CCC1CN(c2ncc(-c3ccc(-c4cc(F)c5nc(C)cn5c4)cc3O)nn2)CCN1 (stereo unspecified) has an IC50 of 2.2 nM.
In the case of Cn1cc2cc(-c3ccc(-c4cnc(N5CCNC(CO)C5)nn4)c(O)c3)cc(F)c2n1 (stereo unspecified), the IC50 is reported as 1.6 nM.
With Cn1nc2cc(-c3ccc(-c4cnc(N5CCN[C@@H](C6CC6)C5)nn4)c(O)c3)cnc2n1 the IC50 was 1.7 nM.
